One data set concerns the target T1, α2c Adrenergic receptor (Homo sapiens, UniProt P18825).
T1 construct: expressed in transfected cells; host or cells: insect Sf9 cells
T1 sequence (P18825 1-462): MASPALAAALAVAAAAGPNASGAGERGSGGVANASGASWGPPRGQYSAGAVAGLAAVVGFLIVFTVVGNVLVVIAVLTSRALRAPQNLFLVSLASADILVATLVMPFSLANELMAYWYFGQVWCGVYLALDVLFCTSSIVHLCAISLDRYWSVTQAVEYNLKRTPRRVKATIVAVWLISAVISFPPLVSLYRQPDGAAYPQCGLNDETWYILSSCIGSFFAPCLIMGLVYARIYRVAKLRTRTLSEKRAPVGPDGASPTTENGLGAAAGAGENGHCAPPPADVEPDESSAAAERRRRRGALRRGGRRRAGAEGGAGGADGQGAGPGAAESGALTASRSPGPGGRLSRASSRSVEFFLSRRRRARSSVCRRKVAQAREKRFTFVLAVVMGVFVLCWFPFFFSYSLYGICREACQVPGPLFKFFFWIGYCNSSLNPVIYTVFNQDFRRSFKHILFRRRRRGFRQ
Kind of data set: α2c Adrenergic receptor radioligand binding ([3H] MK-912). The conditions noted are these: 10 μM solution; for inhibition at 10 µM: read-out: Percentage Inhibition of Specific Binding, α2c receptor. As for the experimental part:
(§1) The four dihydrotetrabenazine isomers A, B, C and D were subjected to specific binding assays to test their ability to bind to the receptors and transporter proteins described below. The results are set out in Table 5
(k) α2, Adrenergic Receptor
α2c Adrenergic receptor binding activity was determined using the method of Uhlen et al., J. Pharmacol. Exp. Ther. (1994), 271:1558-1565, and the following conditions: • Source: Human recombinant insect Sf9 cells • Ligand: 1 nM [^3H]

Data set [1] has as its system female hooded-Lister rats. Briefly: Novel object recognition (NOR) task, sub-chronic PCP-induced cognitive deficit. Type of data set: in vivo, rat. An excerpt:
Certain pre-clinical tests allow the observation of relatively subtle cognitive deficits in the rat that resemble cognitive symptoms in subjects with schizophrenia. The cognitive deficits observed are seen in behaviours such as working memory deficits which may be measured by recognition tasks such as the novel object recognition (NOR) paradigm. A recognition memory task allows the comparison between presented stimuli and previously stored information. Ennaceur & Delacour, Behav. Brain Res. 31: 47-59 (1988) described the NOR test in rats which was based on the differential exploration of familiar and new objects. The NOR test is a non-rewarded, ethologically relevant paradigm based on the spontaneous exploratory behaviour of rats which measures working memory. Each session consists of two trials. In the first trial, the rats are exposed to two identical objects in an open field. During the second trial, rats are exposed to two dissimilar objects, one familiar object from the first trial and one new object. Object recognition in rats can be measured as the difference in time spent exploring the familiar and the new object.
The abovementioned rodent model was used to assess the effects of the Isomer A on sub-chronic PCP-induced deficits in working memory using the novel object recognition (NOR) paradigm. The working hypothesis was that both acute and sub-chronic treatment with Isomer A will attenuate the selective working memory deficit induced by sub-chronic PCP as measured in the NOR test paradigm.
Rats are allowed to habituate to the empty test box and the behavioural test room environment for 1 hour on day 1. Prior to behavioural testing on day 2 rats are given a further 3 minutes habituation.
Following the 3 minute habituation period, the rats are given two 3 minute trials (T1 and T2) which are separated by a 1 minute inter-trial interval in the home cage during which the objects are changed.
In this trial, the animals are allowed to explore two identical objects (A1 and A2) for 3 minutes.
In this trial, the animals explore a familiar object (A) from T1 and a novel object (B) for 3 minutes. The familiar object presented during T2 is a duplicate of the object presented in T1 in order to avoid any olfactory trails.
The object exploration is defined by animals licking, sniffing or touching the object with the forepaws whilst sniffing, but not leaning against, turning around, standing or sitting on the object. The exploration time (s) of each object (A1, A2, A and B) in each trial are recorded using two stopwatches and the following factors are calculated: • Total exploration time of both objects in the acquisition trial (s). • Total exploration time of both objects in the retention trial (s). • Habituation of exploratory activity. The LMA includes the exploration time, as measured by the number of lines crossed, for both the trials. • Discrimination index, which is calculated as shown below;
(time spent exploring novel object−time spent exploring familiar object)÷total time spent in exploring the objects
Behaviour in all trials was recorded on video for subsequent blind scoring.
50 female hooded-Lister rats (Harlan, UK) were used as subjects for these studies. Rats were housed in groups of 5 under standard laboratory conditions under a 12 hr light:dark cycle, lights on at 0700 hr. All testing was carried out in the light phase. Food and water were freely provided. […]

For another data set, the target named is T2, Adrenergic α2A Receptor (Homo sapiens, UniProt P08913).
T2 construct: expressed in transfected cells; host or cells: insect Sf9 cells
T2 sequence (P08913 1-465): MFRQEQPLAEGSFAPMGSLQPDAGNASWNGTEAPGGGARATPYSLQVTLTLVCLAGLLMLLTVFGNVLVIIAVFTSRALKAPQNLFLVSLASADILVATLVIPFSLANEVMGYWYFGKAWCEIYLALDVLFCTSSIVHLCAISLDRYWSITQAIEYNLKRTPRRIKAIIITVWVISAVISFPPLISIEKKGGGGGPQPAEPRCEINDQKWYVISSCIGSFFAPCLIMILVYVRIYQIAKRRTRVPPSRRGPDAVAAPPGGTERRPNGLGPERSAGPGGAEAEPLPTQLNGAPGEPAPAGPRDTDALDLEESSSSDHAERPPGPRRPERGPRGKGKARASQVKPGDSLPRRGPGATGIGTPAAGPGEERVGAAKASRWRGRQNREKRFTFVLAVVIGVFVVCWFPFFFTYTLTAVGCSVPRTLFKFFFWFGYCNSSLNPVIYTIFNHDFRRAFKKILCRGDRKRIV
Kind of data set: Adrenergic α2A receptor radioligand binding ([3H] MK-912). To be noted: 10 μM solution; for inhibition at 10 µM: read-out: Percentage Inhibition of Specific Binding, α2A Receptor. The protocol: as §1
(a) Adrenergic α2A Receptor:
• Reference: S. Uhlen et al. J. Pharmacol. Exp. Ther., 271:1558-1565 (1994) • Source: Human recombinant insect Sf9 cells • Ligand: 1 nM [^3H]

The record followed here is patent publication US20110257220A1, “3,11 b-cis-Dihydrotetrabenazine for the Treatment of Schizophrenia and Other Psychoses” (CAMBRIDGE LABORATORIES (IRELAND) LIMITED, priority 2005, published 2011).

“Also recorded” adds a separate entry of the source.

By inhibition is commonly meant the change of the read-out against control, counted positive when it falls. With `COc1cc2c(cc1OC)[C@@H]1C[C@@H](O)[C@H](CC(C)C)CN1CC2` (single isomer, unassigned) [Isomer A], the inhibition at 10 µM worked out at 56% on α2c Adrenergic receptor and 86% at Adrenergic α2A Receptor. Moreover, the “Sedation (observation of behaviour)” value in data set [1] (30 mg/kg Isomer A p.o., rats in NOR arena) is “did not appear sedated”. In addition, in data set [1] (30 mg/kg Isomer A p.o., sub-chronic PCP rats, FIG. 4), the “Locomotor activity in the test arena (number of lines crossed, T1+T2)” value is reported as “significant effect to reduce locomotor activity”. Further, in data set [1] (Isomer A 3-30 mg/kg p.o. acute, 30 min before test, sub-chronic PCP 2 mg/kg i.p. twice daily 7 days, FIG. 2), the “Attenuation of sub-chronic PCP-induced deficit, retention phase (exploration time of familiar vs novel object)” value is “has efficacy to attenuate the sub-chronic PCP-induced deficit; also recorded: significant at the highest dose”. Also, the “Exploration of two identical objects in the acquisition phase (T1)” value in data set [1] (Isomer A 3-30 mg/kg p.o., sub-chronic PCP rats, FIG. 1) is “no effect”.

In the case of `COc1cc2c(cc1OC)[C@H]1C[C@H](O)[C@@H](CC(C)C)CN1CC2` (single isomer, unassigned) [Isomer B], the inhibition at 10 µM at α2c Adrenergic receptor was -6%; at Adrenergic α2A Receptor, 12%.

Turning to `COc1cc2c(cc1OC)C1CC(O)C(CC(C)C)CN1CC2` (single isomer, unassigned) [Isomer C], the inhibition at 10 µM on α2c Adrenergic receptor amounted to 3%; on Adrenergic α2A Receptor it was 13%.

With `COc1cc2c(cc1OC)[C@H]1C[C@@H](O)[C@H](CC(C)C)CN1CC2` (single isomer, unassigned; isomer d) [Isomer D], the “Percentage Inhibition of Specific Binding, α2c receptor” value on α2c Adrenergic receptor was found to be 74%. In addition, the “Percentage Inhibition of Specific Binding, α2A Receptor” value at Adrenergic α2A Receptor came out at 87%.
